Source: patent US12599671B2, “Compounds, compositions, and methods for protein degradation” (DANA-FARBER CANCER INSTITUTE, INC., priority 2020, dated 2026)

What was measured:
Assay type in all cases: cell-based
[1] = tested on: MV4; 11 WT, MV4; 11 CRBN KO, and MOLM13 cells; assay: Cell growth ATPlite assay; conditions: Homo sapiens; ATP level by ATPlite, 48 h treatment, normalized to DMSO; cell line not given
Method: Human MV4; 11 WT, MV4; 11 CRBN KO, and MOLM13 cells were seeded in 384-well plate and treated with indicated compounds for 48 h. ATP level was measured by ATPlite (PerkinElmer) according to manufactures instructions. Experimental groups were measured in quadruplicate and ATP level was normalized to DMSO. IC50 was analyzed in GraphPad Prism 7.

[2] = target: T1, SMARCA2 (Homo sapiens, UniProt P51531); assay: Immunoblot of SMARCA2 in A549 cells; design: endogenous in cells; host or cells: A549; conditions: 1 μM
Method: (§1) Human A549 were seeded in 6-well plate and treated with Ex. 4 or Ex. 2 for 16, 24 and 40 h. Human MOLM13 were seeded in 6-well plate and treated with Ex. 4 for 6, 10, 16, 24 h. After treatment cells were harvested and lysed in RIPA buffer (Thermo Scientific) with Halt Protease and Phosphatase Inhibitor Cocktail (Thermo Scientific). Protein was extracted and quantified by BCA Protein Assay Kit (Pierce). Protein lysate was separated by NuPAGE 3-8% Tris-Acetate protein gels (Invitrogen) and detected by SMARCA2, PARP and β-ACTIN antibodies (Cell Signaling Technology).

[3] = target: T1, SMARCA2; assay: Immunoblot of SMARCA2 in MOLM13 cells; design: endogenous in cells
Method: as §1

T1 sequence (P51531 whole entry): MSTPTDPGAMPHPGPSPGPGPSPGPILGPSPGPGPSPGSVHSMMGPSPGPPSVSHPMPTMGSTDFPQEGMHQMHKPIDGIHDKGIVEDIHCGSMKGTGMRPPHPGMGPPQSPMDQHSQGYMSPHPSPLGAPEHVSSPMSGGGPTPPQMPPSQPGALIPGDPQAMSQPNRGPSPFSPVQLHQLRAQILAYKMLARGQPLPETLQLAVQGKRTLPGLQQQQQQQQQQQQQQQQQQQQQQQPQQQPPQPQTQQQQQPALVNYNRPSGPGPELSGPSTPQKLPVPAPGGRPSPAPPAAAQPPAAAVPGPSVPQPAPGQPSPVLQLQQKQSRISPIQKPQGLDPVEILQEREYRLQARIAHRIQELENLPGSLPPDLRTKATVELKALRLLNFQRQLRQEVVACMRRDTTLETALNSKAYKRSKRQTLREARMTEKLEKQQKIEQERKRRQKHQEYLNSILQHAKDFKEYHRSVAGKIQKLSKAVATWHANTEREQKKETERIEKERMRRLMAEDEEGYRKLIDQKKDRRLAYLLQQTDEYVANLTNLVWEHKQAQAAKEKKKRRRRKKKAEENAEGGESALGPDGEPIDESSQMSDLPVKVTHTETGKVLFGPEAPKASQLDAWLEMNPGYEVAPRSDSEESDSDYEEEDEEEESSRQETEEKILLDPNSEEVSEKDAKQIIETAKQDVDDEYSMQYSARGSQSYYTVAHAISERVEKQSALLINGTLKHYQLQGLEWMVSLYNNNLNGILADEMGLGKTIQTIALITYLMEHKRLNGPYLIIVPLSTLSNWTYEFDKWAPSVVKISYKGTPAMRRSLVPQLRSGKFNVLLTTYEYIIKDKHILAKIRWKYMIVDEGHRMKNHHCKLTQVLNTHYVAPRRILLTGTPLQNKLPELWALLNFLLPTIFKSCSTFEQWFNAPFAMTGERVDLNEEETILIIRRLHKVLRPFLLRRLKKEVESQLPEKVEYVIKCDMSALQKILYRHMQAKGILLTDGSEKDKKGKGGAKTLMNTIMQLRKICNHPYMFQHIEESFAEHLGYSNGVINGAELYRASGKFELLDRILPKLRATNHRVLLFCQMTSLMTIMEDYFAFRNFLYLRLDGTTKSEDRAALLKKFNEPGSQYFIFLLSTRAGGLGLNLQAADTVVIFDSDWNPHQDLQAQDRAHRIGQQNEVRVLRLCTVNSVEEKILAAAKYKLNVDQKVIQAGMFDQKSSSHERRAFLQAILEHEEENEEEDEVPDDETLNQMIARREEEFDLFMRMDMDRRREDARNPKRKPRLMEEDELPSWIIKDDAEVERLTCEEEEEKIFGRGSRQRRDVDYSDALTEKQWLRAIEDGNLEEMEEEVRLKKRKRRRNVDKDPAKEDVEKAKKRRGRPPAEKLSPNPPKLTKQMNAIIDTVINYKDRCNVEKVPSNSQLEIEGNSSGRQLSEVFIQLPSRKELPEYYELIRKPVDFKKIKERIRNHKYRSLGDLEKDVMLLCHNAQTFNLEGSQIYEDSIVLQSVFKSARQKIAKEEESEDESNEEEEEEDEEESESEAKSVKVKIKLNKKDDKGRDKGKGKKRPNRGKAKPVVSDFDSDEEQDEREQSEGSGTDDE

| time after which cells started to exhibit protein degradation (Western Blot) [2] | time after which cells started to exhibit protein degradation (Western Blot) [3] | SMILES | IC50 [1] |
| --- | --- | --- | --- |
| – | – | O=C1CCC(N2C(=O)c3ccc(NCCCCNC(=O)c4cccc(C#Cc5cc(NC(=O)Nc6ccnc(Cl)c6)ccn5)c4)cc3C2=O)C(=O)N1 (stereo not shown) [Example 7] | ≤ 0.1 µM |
| 40 h | – | O=C1CCC(N2C(=O)c3cccc(NCCCCCCCCNC(=O)c4cccc(C#Cc5cc(NC(=O)Nc6ccnc(Cl)c6)ccn5)c4)c3C2=O)C(=O)N1 (stereo not shown) [Example 2] | 0.1 to 1 µM |
| – | – | O=C1CCC(N2C(=O)c3ccc(NCCOCCNC(=O)c4cccc(C#Cc5cc(NC(=O)Nc6ccnc(Cl)c6)ccn5)c4)cc3C2=O)C(=O)N1 (stereo not shown) [Example 8] | ≤ 0.1 µM |
| – | – | O=C1CCC(N2C(=O)c3cccc(NCCCCCCNC(=O)c4cccc(C#Cc5cc(NC(=O)Nc6ccnc(Cl)c6)ccn5)c4)c3C2=O)C(=O)N1 (stereo not shown) [Example 12] | ≤ 0.1 µM |
| – | – | O=C1CCC(N2C(=O)c3cccc(NCCOCCOCCNC(=O)c4cccc(C#Cc5cc(NC(=O)Nc6ccnc(Cl)c6)ccn5)c4)c3C2=O)C(=O)N1 (stereo not shown) [Example 3] | 0.1 to 1 µM |
| 40 h | 16 h | O=C1CCC(N2C(=O)c3cccc(NCCCCNC(=O)c4cccc(C#Cc5cc(NC(=O)Nc6ccnc(Cl)c6)ccn5)c4)c3C2=O)C(=O)N1 (stereo not shown) [Example 4] | ≤ 0.1 µM |
| – | – | O=C1CCC(N2C(=O)c3cccc(NCCNC(=O)c4cccc(C#Cc5cc(NC(=O)Nc6ccnc(Cl)c6)ccn5)c4)c3C2=O)C(=O)N1 (stereo not shown) [Example 11] | > 100 µM |
| – | – | Cc1ncsc1-c1ccc(CNC(=O)[C@@H]2C[C@@H](O)CN2C(=O)[C@@H](NC(=O)CCCCCNC(=O)c2cccc(C#Cc3cc(NC(=O)Nc4ccnc(Cl)c4)ccn3)c2)C(C)(C)C)cc1 [Example 9] | > 100 µM |
| – | – | Cc1ncsc1-c1ccc(CNC(=O)[C@@H]2C[C@@H](O)CN2C(=O)[C@@H](NC(=O)COCCOCCOCCNC(=O)c2cccc(C#Cc3cc(NC(=O)Nc4ccnc(Cl)c4)ccn3)c2)C(C)(C)C)cc1 [Example 10] | 1 to 10 µM |
| – | – | O=C1CCC(N2C(=O)c3cccc(NCCCCCCCCCCCC(=O)OCc4cnc(Cl)cc4NC(=O)Nc4cc(C(F)F)ns4)c3C2=O)C(=O)N1 (stereo not shown) [Example 14] | 1 to 10 µM |
